Data: patent publication US20170304175A1, “COMPOSITION FOR INDUCING FACILITATION OF CELL REJUVENATION COMPRISING GENISTEIN OR EPIGALLOCATECHIN GALLATE” (AMOREPACIFIC CORPORATION, priority 2014, published 2017)

Test system: melanocytes
Experiment: Observation of phenotype of melanocytes with an optical microscope
Assay type: cell-based, Human
Conditions: long-term exposure (1 μM in medium from passage 7 to passage 11/12), FIGS. 4A-4B
Method: Human primary melanocytes (Life Technologies, CA, USA) were cultured in a M-254 medium (Gibco BRL, NY, USA) supplemented with a human melanocyte growth supplement (HMGS; Gibco BRL, NY, USA) in a 5% CO2 incubator at […] on a 100-mm culture plate while replacing the medium every other day until the cells occupy 80% of the plate area and then subcultured on another 100-mm culture plate at a ratio of 1:4.
The melanocytes first placed on the 100-mm culture plate were considered as passage 1 (PA1) and subculturing was performed 11 times (PA12).
As a control group, melanocytes were subcultured to passage 11 and passage 12 without any treatment, and as a test group, the cells were subcultured under the same environment as the control group until passage 6, and then subcultured from passage 7 to passage 11 and passage 12 in a medium containing 1 μM genistein or epigallocatechin gallate (EGCG).

SMILES	phenotype of melanocytes of the late cell line
O=C(O[C@@H]1Cc2c(O)cc(O)cc2O[C@@H]1c1cc(O)c(O)c(O)c1)c1cc(O)c(O)c(O)c1 [epigallocatechin gallate (EGCG), epigallocatechin gallate]	recovered similarly to the cells of the early stage of subculturing
O=c1c(-c2ccc(O)cc2)coc2cc(O)cc(O)c12 [genistein]	recovered similarly to the cells of the early stage of subculturing
